Values belong to the compound of their own block, whether it stands above or below them.
System: 885512-296-R-J2-PDC complex spheroid growth, % test/control
Experiment: Anticancer human tumor 885512-296-R-J2-PDC patient-derived breast carcinoma cell line growth inhibition [Asc]
Conditions: for IC50: curve of first compound; for viability, T/C: stronger effect = lower value
Method in brief: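 Stromal components (HUVEC and hMSC) are co-assembled with the cancer cells into multicellular spheroids. Drugs are then added singly or paired, at concentrations falling by half-log increments from a clinically achievable maximum, capped at 10 microM without known Cmax.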

[1] = second compound 0.01 µM, first compound 0.0316 µM
[2] = second compound 0.01 µM, first compound 0.1 µM
[3] = second compound 0.01 µM, first compound 0.316 µM
[4] = second compound 0.01 µM, first compound 1 µM
[5] = second compound 0.01 µM, first compound 3.16 µM
[6] = second compound 0.01 µM, first compound 10 µM
[7] = second compound 0.0316 µM, first compound 0.0316 µM
[8] = second compound 0.0316 µM, first compound 0.1 µM
[9] = second compound 0.0316 µM, first compound 0.316 µM
[10] = second compound 0.0316 µM, first compound 1 µM
[11] = second compound 0.0316 µM, first compound 3.16 µM
[12] = second compound 0.0316 µM, first compound 10 µM
[13] = second compound 0.1 µM, first compound 0.0316 µM
[14] = second compound 0.1 µM, first compound 0.1 µM
[15] = second compound 0.1 µM, first compound 0.316 µM
[16] = second compound 0.1 µM, first compound 1 µM
[17] = second compound 0.1 µM, first compound 3.16 µM
[18] = second compound 0.1 µM, first compound 10 µM
[19] = second compound 0.316 µM, first compound 0.0316 µM
[20] = second compound 0.316 µM, first compound 0.1 µM
[21] = second compound 0.316 µM, first compound 0.316 µM
[22] = second compound 0.316 µM, first compound 1 µM
[23] = second compound 0.316 µM, first compound 3.16 µM
[24] = second compound 0.316 µM, first compound 10 µM
[25] = second compound 1 µM, first compound 0.0316 µM
[26] = second compound 1 µM, first compound 0.1 µM
[27] = second compound 1 µM, first compound 0.316 µM
[28] = second compound 1 µM, first compound 1 µM
[29] = second compound 1 µM, first compound 3.16 µM
[30] = second compound 1 µM, first compound 10 µM
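Further: spheroids exposed to compounds for seven days.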
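Wherever viability, T/C is given: 100% = DMSO vehicle control wells.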

IC50 (second compound 0.01 µM): 2.66 µM
IC50 (second compound 0.0316 µM): 2.29 µM
IC50 (second compound 0.1 µM): 2.45 µM
IC50 (second compound 0.316 µM): 2.24 µM
IC50 (second compound 1 µM): 2.24 µM
SMILES: C=C(F)C(=O)N1CCN(c2nc(OCC3CCCN3C)nc3c2CCN(c2cccc4cccc(Cl)c24)C3)CC1CC#N (stereo not given) + CNC(C)C(=O)NC1CN(S(=O)(=O)c2cccc(S(=O)(=O)N3CCC4CCC(C(=O)NC(c5ccccc5)c5ccccc5)N4C(=O)C(NC(=O)C(C)NC)C3)c2)CCC2CCC(C(=O)NC(c3ccccc3)c3ccccc3)N2C1=O
viability, T/C [1]: 88.6%
viability, T/C [2]: 91.8%
viability, T/C [3]: 95.7%
viability, T/C [4]: 84.8%
viability, T/C [5]: 43.8%
viability, T/C [6]: 0.11%
viability, T/C [7]: 100%
viability, T/C [8]: 101%
viability, T/C [9]: 100%
viability, T/C [10]: 99.7%
viability, T/C [11]: 30.7%
viability, T/C [12]: 0.3%
viability, T/C [13]: 105%
viability, T/C [14]: 102%
viability, T/C [15]: 102%
viability, T/C [16]: 104%
viability, T/C [17]: 34.9%
viability, T/C [18]: 0.09%
viability, T/C [19]: 110%
viability, T/C [20]: 103%
viability, T/C [21]: 113%
viability, T/C [22]: 103%
viability, T/C [23]: 27.5%
viability, T/C [24]: 0.09%
viability, T/C [25]: 114%
viability, T/C [26]: 113%
viability, T/C [27]: 115%
viability, T/C [28]: 95.3%
viability, T/C [29]: 30.5%
viability, T/C [30]: 0.38%

IC50 (second compound 0.01 µM): > 10 µM
IC50 (second compound 0.0316 µM): > 10 µM
IC50 (second compound 0.1 µM): > 10 µM
IC50 (second compound 0.316 µM): > 10 µM
IC50 (second compound 1 µM): > 10 µM
SMILES: C=CC(=O)N1CCN(c2nc(=O)n(-c3c(C)ccnc3C(C)C)c3nc(-c4c(O)cccc4F)c(F)cc23)C(C)C1 (stereo not given) + CNC(C)C(=O)NC1CN(S(=O)(=O)c2cccc(S(=O)(=O)N3CCC4CCC(C(=O)NC(c5ccccc5)c5ccccc5)N4C(=O)C(NC(=O)C(C)NC)C3)c2)CCC2CCC(C(=O)NC(c3ccccc3)c3ccccc3)N2C1=O
viability, T/C [1]: 88.2%
viability, T/C [2]: 80.9%
viability, T/C [3]: 101%
viability, T/C [4]: 81.3%
viability, T/C [5]: 90.6%
viability, T/C [6]: 64.2%
viability, T/C [7]: 90.3%
viability, T/C [8]: 104%
viability, T/C [9]: 96.6%
viability, T/C [10]: 97.2%
viability, T/C [11]: 92.6%
viability, T/C [12]: 68.5%
viability, T/C [13]: 111%
viability, T/C [14]: 109%
viability, T/C [15]: 98%
viability, T/C [16]: 98.6%
viability, T/C [17]: 87.7%
viability, T/C [18]: 66.8%
viability, T/C [19]: 104%
viability, T/C [20]: 106%
viability, T/C [21]: 98.8%
viability, T/C [22]: 100%
viability, T/C [23]: 84.4%
viability, T/C [24]: 68.6%
viability, T/C [25]: 105%
viability, T/C [26]: 103%
viability, T/C [27]: 104%
viability, T/C [28]: 109%
viability, T/C [29]: 79.2%
viability, T/C [30]: 59%

IC50 (second compound 0.01 µM): > 3 µM
IC50 (second compound 0.0316 µM): 2.97 µM
IC50 (second compound 0.1 µM): > 3 µM
IC50 (second compound 0.316 µM): > 3 µM
IC50 (second compound 1 µM): > 3 µM
SMILES: CCN1C(C(=O)NC23CCC(C(=O)O)(CC2)CC3)C(c2cccc(Cl)c2F)C2(C(=O)Nc3cc(Cl)ccc32)C12CCCCC2 (stereo not given) + CNC(C)C(=O)NC1CN(S(=O)(=O)c2cccc(S(=O)(=O)N3CCC4CCC(C(=O)NC(c5ccccc5)c5ccccc5)N4C(=O)C(NC(=O)C(C)NC)C3)c2)CCC2CCC(C(=O)NC(c3ccccc3)c3ccccc3)N2C1=O
viability, T/C (second compound 0.01 µM, first compound 0.00949 µM): 85.2%
viability, T/C (second compound 0.01 µM, first compound 0.03 µM): 77.7%
viability, T/C (second compound 0.01 µM, first compound 0.0949 µM): 87%
viability, T/C (second compound 0.01 µM, first compound 0.3 µM): 84%
viability, T/C (second compound 0.01 µM, first compound 0.949 µM): 67%
viability, T/C (second compound 0.01 µM, first compound 3 µM): 53.5%
viability, T/C (second compound 0.0316 µM, first compound 0.00949 µM): 103%
viability, T/C (second compound 0.0316 µM, first compound 0.03 µM): 98.3%
viability, T/C (second compound 0.0316 µM, first compound 0.0949 µM): 88.7%
viability, T/C (second compound 0.0316 µM, first compound 0.3 µM): 97.2%
viability, T/C (second compound 0.0316 µM, first compound 0.949 µM): 84.7%
viability, T/C (second compound 0.0316 µM, first compound 3 µM): 49.4%
viability, T/C (second compound 0.1 µM, first compound 0.00949 µM): 98.7%
viability, T/C (second compound 0.1 µM, first compound 0.03 µM): 107%
viability, T/C (second compound 0.1 µM, first compound 0.0949 µM): 108%
viability, T/C (second compound 0.1 µM, first compound 0.3 µM): 104%
viability, T/C (second compound 0.1 µM, first compound 0.949 µM): 77.2%
viability, T/C (second compound 0.1 µM, first compound 3 µM): 51.7%
viability, T/C (second compound 0.316 µM, first compound 0.00949 µM): 104%
viability, T/C (second compound 0.316 µM, first compound 0.03 µM): 103%
viability, T/C (second compound 0.316 µM, first compound 0.0949 µM): 111%
viability, T/C (second compound 0.316 µM, first compound 0.3 µM): 97.9%
viability, T/C (second compound 0.316 µM, first compound 0.949 µM): 86%
viability, T/C (second compound 0.316 µM, first compound 3 µM): 57.8%
viability, T/C (second compound 1 µM, first compound 0.00949 µM): 104%
viability, T/C (second compound 1 µM, first compound 0.03 µM): 118%
viability, T/C (second compound 1 µM, first compound 0.0949 µM): 111%
viability, T/C (second compound 1 µM, first compound 0.3 µM): 101%
viability, T/C (second compound 1 µM, first compound 0.949 µM): 90%
viability, T/C (second compound 1 µM, first compound 3 µM): 60.3%

— PubChem BioAssay AID1963447 (Molecular Pharmacology Branch, DTP, NCI, 2024)
